# Reference: US5753660A, “Substituted sulfonylalkanoylamino hydroxyethylamino sulfonamide retroviral protease inhibitors” (G. D. Searle & Co., priority 1996, dated 1998)
# Tests used:
# HIV-1 = test: HIV inhibition assay in acutely infected CEM cells (tetrazolium/MTT based); format: cell-based; details: Human immunodeficiency virus 1, CCRF-CEM, 168 h, HIV-1 1000 TCID50, MTT, 7 days
# Description: The effectiveness of various compounds were determined in the above-described enzyme assay and in a CEM cell assay.
# The HIV inhibition assay method of acutely infected cells is an automated tetrazolium based calorimetric assay essentially that reported by Pauwles et al, J. Virol. Methods, 20, 309-321 (1988). Assays were performed in 96-well tissue culture plates. CEM cells, a CD4+ cell line, were grown in RPMI-1640 medium (Gibco) supplemented with a 10% fetal calf serum and were then treated with polybrene (2 μug/ml). An 80 μl volume of medium containing 1×10^4 cells was dispensed into each well of the tissue culture plate. To each well was added a 100 μl volume of test compound dissolved in tissue culture medium (or medium without test compound as a control) to achieve the desired final concentration and the cells were incubated at 37° C. for 1 hour. A frozen culture of HIV-1 was diluted in culture medium to a concentration of 5×10^4 TCID50 per ml (TCID50 =the dose of virus that infects 50% of cells in tissue culture), and a 20 μl volume of the virus sample (containing 1000 TCID50 of virus) was added to wells containing test compound and to wells containing only medium (infected control cells). Several wells received culture medium without virus (uninfected control cells). Likewise, the intrinsic toxicity of the test compound was determined by adding medium without virus to several wells containing test compound. In summary, the tissue culture plates contained the following experiments:
# In experiments 2 and 4 the final concentrations of test compounds were 1, 10, 100 and 500 μg/ml. Either azidothymidine (AZT) or dideoxyinosine (ddI) was included as a positive drug control. […] DMSO was added to all control wells at an appropriate concentration.
# Following the addition of virus, cells were incubated at 37° C. in a humidified, 5% CO2 atmosphere for 7 days. Test compounds could be added on days 0, 2 and 5 if desired. On day 7,post-infection, the cells in each well were resuspended and a 100 μl sample of each cell suspension was removed for assay. A 20 μL volume of a 5 mg/ml solution of 3-(4,5-dimethylthiazol-2-yl)-2,5-diphenyltetrazolium bromide (MTT) was added to each 100 μL cell suspension, and the cells were incubated for 4 hours at […] in a 5% CO2 environment. […] To each sample was added 100 μl of 10% sodium dodecylsulfate in 0.01N HC1 to lyse the cells, and samples were incubated overnight. The absorbance at 590 nm was determined for each sample using a Molecular Devices microplate reader. Absorbance values for each set of wells is compared to assess viral control infection, uninfected control cell response as well as test compound by cytotoxicity and antiviral efficacy.
# HIV protease = biological target: T1, HIV protease (Human immunodeficiency virus type 1 group M subtype B, UniProt P04585); test: HIV protease enzyme assay; format: biochemical; details: HIV protease 12.3 nanomolar; substrate 80 μM; pH 6.4; ambient temperature
# T1 construct: HIV protease is diluted in the assay buffer to a final enzyme concentration of 12.3 nanomolar, based on a molecular weight of 10,780
# Description: The compounds of the present invention are effective HIV protease inhibitors. Utilizing an enzyme assay as described below, the compounds set forth in the examples herein disclosed inhibited the HIV enzyme. The preferred compounds of the present invention and their calculated IC50 (inhibiting concentration 50%, i.e., the concentration at which the inhibitor compound reduces enzyme activity by 50%) values are shown in Table 14. The enzyme method is described below. The substrate is 2-Ile-Nle-Phe(p-NO2)-Gln-ArgNH2. The positive control is MVT-101 (Miller, M. et al, Science, 246, 1149 (1989)] The assay conditions are as follows:
# Assay buffer: 20 mM sodium phosphate, pH 6.4
# The above described substrate is dissolved in DMSO, then diluted 10 fold in assay buffer. Final substrate concentration in the assay is 80 μM. HIV protease is diluted in the assay buffer to a final enzyme concentration of 12.3 nanomolar, based on a molecular weight of 10,780.
# The final concentration of DMSO is 14% and the final concentration of glycerol is 18%. The test compound is dissolved in DMSO and diluted in DMSO to 10×the test concentration; 10 μl of the enzyme preparation is added, the materials mixed and then the mixture is incubated at ambient temperature for 15 minutes. The enzyme reaction is initiated by the addition of 40 μl of substrate. The increase in fluorescence is monitored at 4 time points (0, 8, 16 and 24 minutes) at ambient temperature. Each assay is carried out in duplicate wells.
SMILES,IC50 (HIV protease) [nM],EC50 (HIV-1) [nM]
CC(C)CN(C[C@@H](O)[C@H](Cc1ccccc1)NC(=O)[C@H](C)CS(=O)(=O)CCc1ccccn1)S(=O)(=O)c1ccc2c(c1)OCO2,3,6
CC(C)CN(C[C@@H](O)[C@H](Cc1ccccc1)NC(=O)[C@H](C)CS(=O)(=O)CCC(=O)N1CCOCC1)S(=O)(=O)c1ccc2c(c1)OCO2 [Example 6],24,123
CC(C)CN(C[C@@H](O)[C@H](Cc1ccccc1)NC(=O)[C@H](C)CS(=O)(=O)CC(=O)N1CCN(C(=O)OC(C)(C)C)CC1)S(=O)(=O)c1ccc2c(c1)OCO2 [Example 7],7,
CC(C)CN(C[C@@H](O)[C@H](Cc1ccccc1)NC(=O)[C@H](C)CS(=O)(=O)CC(=O)c1ccccc1)S(=O)(=O)c1ccc2c(c1)OCO2 [Example 9],4,39
CC(C)CN(C[C@@H](O)[C@H](Cc1ccccc1)NC(=O)[C@H](C)CS(=O)(=O)Cc1c[nH]cn1)S(=O)(=O)c1ccc2c(c1)OCO2 [Example 12],7,187
CC(C)CN(C[C@@H](O)[C@H](Cc1ccccc1)NC(=O)[C@H](C)CS(=O)(=O)Cc1cc[nH]n1)S(=O)(=O)c1ccc2c(c1)OCO2 [Example 13],5,71
CC(C)CN(C[C@@H](O)[C@H](Cc1ccccc1)NC(=O)[C@H](C)CS(=O)(=O)Cc1cn[nH]c1)S(=O)(=O)c1ccc2c(c1)OCO2 [Example 14],4,81
CC(C)CN(C[C@@H](O)[C@H](Cc1ccccc1)NC(=O)[C@H](C)CS(=O)(=O)Cc1nc2ccccc2[nH]1)S(=O)(=O)c1ccc2c(c1)OCO2 [Example 15],3,47
CC(C)CN(C[C@@H](O)[C@H](Cc1ccccc1)NC(=O)[C@H](C)CS(=O)(=O)Cc1cncs1)S(=O)(=O)c1ccc2c(c1)OCO2 [Example 16],4,21
CC(C)CN(C[C@@H](O)[C@H](Cc1ccccc1)NC(=O)[C@H](C)CS(=O)(=O)C[C@H]1CCCN1)S(=O)(=O)c1ccc2c(c1)OCO2 [Example 17],4,160
CC(C)CN(C[C@@H](O)[C@H](Cc1ccccc1)NC(=O)[C@H](C)CS(=O)(=O)c1ccccn1)S(=O)(=O)c1ccc2c(c1)OCO2 [Example 19],11,174
CC(C)CN(C[C@@H](O)[C@H](Cc1ccccc1)NC(=O)[C@H](C)CS(=O)(=O)C[C@H]1CCCN1C(=O)OCc1ccccc1)S(=O)(=O)c1ccc2c(c1)OCO2 [Example 25],6,43

# More lines, main results first:
IC50 (HIV protease) [nM],SMILES,EC50 (HIV-1) [nM]
10,CC(C)CN(C[C@@H](O)[C@H](Cc1ccccc1)NC(=O)[C@H](C)CS(=O)(=O)CC(=O)NCC[N+]1([O-])CCCC1)S(=O)(=O)c1ccc2c(c1)OCO2 [Example 2],
4,CC(C)CN(C[C@@H](O)[C@H](Cc1ccccc1)NC(=O)[C@H](C)CS(=O)(=O)CCC(=O)N1CCN(C(=O)OC(C)(C)C)CC1)S(=O)(=O)c1ccc2c(c1)OCO2 [Example 3],
4,CC(C)CN(C[C@@H](O)[C@H](Cc1ccccc1)NC(=O)[C@H](C)CS(=O)(=O)CCC(=O)N1CCNCC1)S(=O)(=O)c1ccc2c(c1)OCO2 [Example 4],
10,CC(C)CN(C[C@@H](O)[C@H](Cc1ccccc1)NC(=O)[C@H](C)CS(=O)(=O)CC(=O)NCC[N+]1([O-])CCOCC1)S(=O)(=O)c1ccc2c(c1)OCO2 [Example 5],
27,CC(C)CN(C[C@@H](O)[C@H](Cc1ccccc1)NC(=O)[C@H](C)CS(=O)(=O)CC(=O)N1CCNCC1)S(=O)(=O)c1ccc2c(c1)OCO2 [Example 8],
16,CC(C)CN(C[C@@H](O)[C@H](Cc1ccccc1)NC(=O)[C@H](C)CS(=O)(=O)CC(=O)N1CCS(=O)(=O)CC1)S(=O)(=O)c1ccc2c(c1)OCO2 [Example 10],
22,CCOC(=O)CCCSC[C@@H](C)C(=O)N[C@@H](Cc1ccccc1)[C@H](O)CN(CC(C)C)S(=O)(=O)c1ccc2c(c1)OCO2 [Example 11],
6,CC(C)CN(C[C@@H](O)[C@H](Cc1ccccc1)NC(=O)[C@H](C)CS(=O)(=O)C[C@@H]1CCCN1)S(=O)(=O)c1ccc2c(c1)OCO2 [Example 18],
4,CC(C)CN(C[C@@H](O)[C@H](Cc1ccccc1)NC(=O)[C@H](C)CS(=O)(=O)CC(CO)CO)S(=O)(=O)c1ccc2c(c1)OCO2 [Example 20],
9,COC1O[C@H](CS(=O)(=O)C[C@@H](C)C(=O)N[C@@H](Cc2ccccc2)[C@H](O)CN(CC(C)C)S(=O)(=O)c2ccc3c(c2)OCO3)[C@@H](O)[C@H]1O (some centres unmarked) [Example 21],
63,CC(C)CN(C[C@@H](O)[C@H](Cc1ccccc1)NC(=O)[C@H](C)CSCC(=O)N1CCOCC1)S(=O)(=O)c1ccc2c(c1)OCO2 [Example 22],
12,CC(C)CN(C[C@@H](O)[C@H](Cc1ccccc1)NC(=O)[C@H](C)CSCC(=O)N1CCN(C(=O)OC(C)(C)C)CC1)S(=O)(=O)c1ccc2c(c1)OCO2 [Example 23],
25,CC(C)CN(C[C@@H](O)[C@H](Cc1ccccc1)NC(=O)[C@H](C)CSCC(=O)N1CCSCC1)S(=O)(=O)c1ccc2c(c1)OCO2 [Example 24],
16,CC(C)CN(C[C@@H](O)[C@H](Cc1ccccc1)NC(=O)[C@H](C)CSCCC(=O)N1CCN(C(=O)OC(C)(C)C)CC1)S(=O)(=O)c1ccc2c(c1)OCO2 [Example 26],
75,CC(C)CN(C[C@@H](O)[C@H](Cc1ccccc1)NC(=O)[C@H](C)CSCC(=O)NCCN1CCCC1)S(=O)(=O)c1ccc2c(c1)OCO2 [Example 27],
